Reference: patent publication US7645735B2, “Anti-angiogenic peptides for treating or preventing endometriosis” (Children's Medical Center Corporation, priority 2003, dated 2010)
No end group written: not given here.

Columns and labels:
LLC = experiment: Lewis lung carcinoma (LLC) tumor model in C57Bl/6J mice; assay type: in vivo, mouse; settings: for tumor volume: LLC, s.c. twice a day 2.8 mg/kg/day, n=5 (FIG. 7); for inhibited LLC (tumor inhibition): peptides s.c. twice a day at 2.8 mg/kg/d, C57B1/6J mice
Experimental: Control mice were treated with PBS. In these experiments, LLC cells were implanted into the s.c. dorsa of C57B1/6J mice, and systemically treated. Peptides (mP1, mP2, mP5, and mP6) were injected (s.c.) twice a day at a dose of 2.8 mg/kg/d, whereas endostatin and PBS were administered once a day at a dose of 20 mg/kg/d.
(§1) BxPC-3 and LLC cells were grown in cell culture as described above. […] Mice were shaved and the dorsal skin was cleaned with ethanol before tumor cell injection. A suspension of 5×10^6 tumor cells in 0.1 ml RPMI-1640 (for BxPC-3) or DMEM (for LLC) was injected subcutaneously (s.c.) into the dorsa of mice at the proximal midline. BxPC-3 cells were implanted in SCID mice and LLC in C57B1/6J mice.
Animals with Lewis Lung carcinoma (600-800 mm^3 tumors) were euthanized, and the skin overlying the tumor was cleaned with Betadine and ethanol. Tumor tissue was excised under aseptic conditions. A suspension of tumor cells in 0.9% normal saline was made by passage of viable tumor tissue through a sieve and a series of sequentially smaller hypodermic needles of diameter 22- to 30-gauge. The final concentration was adjusted to 1×10^7 cells/ml, and the suspension was placed on ice. The injection of tumor cells was performed as described above.
(§2) The mice were weighed and tumors were measured every 3-5 days in two diameters with a dial-caliper. Volumes were determined using the formula a2×b×0.52 (where a is the shortest and b is the longest diameter). Data is represented as volume of treated tumor over control (T/C). At the completion of each experiment, the mice were euthanized with CO2 asphyxiation. Tumors were fixed in 10% buffered Formalin (Fisher Scientific, Fair Lawn, N.J.) and paraffin-embedded.
(§3) For treatment of tumor-bearing mice, tumor volumes were allowed to grow to approximately 100 mm^3, and mice were randomized. Treatment was performed by single bolus s.c. injections. Peptides were administered twice a day (every 12 hrs). Doses indicated for peptides were corrected for the purity of peptides (approximately 70%). For example, mice injected with 4 mg/kg/d peptide, were actually injected with 2.8 mg/kg/d after correction. The unpaired Student t-test was used for statistical analysis.

[1] = tested on: human microvascular endothelial cells (HMVECs); experiment: VEGF-induced migration of HMVECs, modified Boyden chamber; assay type: cell-based
Experimental: Endostatin peptides were tested for anti-endothelial cell migration activity. Inhibition of VEGF-induced migration of human microvascular endothelial cells (HMVECs) was determined using several doses of endostatin peptides (FIG. 5). Human peptides were used because the cells were of human origin and the migration response of the HMVECs was assayed using a modified Boyden chamber. VEGF (5 ng/ml) was used a chemotactic agent and cells were challenged with human endostatin (Entremed; EM-ES), human Fc-Endostatin (nFcES), human P1 (hP1), human P2 (hP2), human P6 (hP6), and human P1-H1/3A (hP1-H1/3A). Total migration per membrane was quantified from the capture images using Scion Image Software (National Institutes of Health) and the unpaired Student T test was used for statistical analysis. […] No significant differences in inhibition between these concentrations were observed. At higher and lower concentrations less or no inhibition was observed. At 500 ng/ml of hP1 no inhibition was observed. Thus, similar to full-length endostatin, there is a U-shaped response to hP1 inhibition of EC migration.
The motility response of HMVEC-d cells was assayed using a modified Boyden chamber. Cells were plated in T75-cm2 flasks at 0.5×10^6 cells per flask and allowed to grow for 48 h (˜70% confluent) prior to the migration assay. To facilitate cell adhesion, the upper membrane of a transwell ([…]; Costar) was coated with fibronectin ([…]; Becton Dickinson, Bedford, Mass.) for 1 h at 37° C. Coated membranes were rinsed with PBS and allowed to air dry immediately before use. Cells were detached by trypsinization, treated with trypsinization neutralization solution (Clonetics), and resuspended at a final concentration of 1×10^6 cells/ml in serum-free endothelial basal medium (EBM; Clonetics) containing 0.1% BSA. Cells (200,000 in 0.2 ml) were then treated with 0.2 ml of EBM/BSA containing endostatin or peptides at the indicated concentrations. Cells were incubated for 20 min. at 37° C. with occasional shaking. Cells (50,000 in 100 μl) were added to the upper chamber of the transwell. EBM or EBM supplemented with VEGF (5 ng/ml) was added to the lower chamber and cells were allowed to migrate toward the bottom chamber for 4 h in a humidified incubator containing 5% CO2. Transwell filters were rinsed once with PBS and fixed and stained using a Diff-Quik staining kit (Baxter) following the manufacturer's protocol. Non-migrated cells were removed from the upper chamber with a cotton swab. Stained filters were cut out of the chamber and mounted onto slides using Permount (Fisher). The number of migrated cells was measured using microscopy (three fields from each membrane were captured using a 40× objective), and images were captured with a CCD camera using SPOT software. Total migration per membrane was quantified from the captured images using Scion Image software (National Institutes of Health). All experiments were run in triplicate. The unpaired Student t-test was used for statistical analysis.

[2] = tested on: human pancreatic tumor cells BxPC-3; experiment: BxPC-3 human pancreatic tumor model in SCID mice; assay type: in vivo; settings: human endostatin peptides s.c. twice a day at 7 mg/kg/d, final measurement at 28 days, n=3
Experimental: These peptides were initially tested for anti-tumor activity employing the human pancreatic tumor cells BxPC-3 cells, which were implanted in the s.c. dorsa of SCID mice. For systemic treatment, human endostatin peptides, P1-P8, were administered subcutaneously (s.c.) twice a day at 7 mg/kg/d due to the high clearance rate from the mouse circulation. Full-length Fc-Endostatin, hFcES was administered subcutaneously only once per day at a dose of 20 mg/kg/d. PBS was used as a control.
as §1, §2, §3

[3] = tested on: vessel density (CD31) of LLC tumors; experiment: Vessel density (CD31 staining) of LLC tumor sections; assay type: in vivo, mouse; settings: peptides 2.8 mg/kg/d s.c. twice a day
Experimental: To determine the effect on angiogenesis after mP1 treatment, LLC tumors treated with mP1, mP2, and endostatin at equimolar concentration were analyzed for vessel density (CD31). […] In each case, peptides were administered twice a day s.c. and LLC tumor sections from day 13 were formalin-fixed paraffin-embedded and then stained with CD31 (PECAM). FIG. 2C show the determination of vessel density and the Y axis is expressed as %CD31/high power field (hpf).
Tumors were fixed in 10% buffered Formalin overnight at 4° C. The next day, tumors were washed three times in PBS and paraffin-embedded. Sections (5 μm) were permeabilized with 40 μg/ml proteinase K (Roche Diagnostics Corp.) in 0.2 M Tris-HCl buffer (pH 7.6) for 25 minutes at 37° C. and washed with PBS. PECAM (1:250) was incubated at 4° C. overnight. Stainings were amplified using tyramide signal amplification direct and indirect kits (NEN Life Science Products Inc., Boston, Mass.). Sections were photographed at 400× magnification using a NIKON TE300 microscope. Vessel density (average of three fields) was determined by IPLab software. The unpaired Student t-test was used for statistical analysis.

female C57BL/6 mice = experiment: Estrus cycling by daily vaginal smears; assay type: in vivo, mouse; settings: larger experiment, 2.5 mg/kg
Source text: To investigate the effect of the angiogenesis inhibitors used above on estrus cycling, mice from the first two studies underwent daily vaginal smears in the middle of the endometriosis experiment. The stage of the estrus cycle was classified by evaluating the cells present at the cytological staining. Briefly, this was done as follows. In order to synchronize estrus cycling prior to surgery, mice were housed in groups of 5 for a week. After endometriosis surgery, with the intention to prevent the suspension of cycling, all mice were housed in individual cages. In the absence of a male, female mice housed in groups may become anestrus. Starting post surgical week two, estrus cycling was evaluated by cytological analysis of daily vaginal smears over one week's period. Exams were performed each day during the early morning hours. Autoclaved, wetted, blunt toothpicks were used to gently scrape the superficial cell layer of the animal's vagina. Cells were transferred to a drop of Evan's blue in 0.9% saline on a glass slide for staining, sealed under a glass cover slip and examined under a microscope (Carl Zeiss, Thornwood, N.Y.). Subsequently, each slide was analyzed under low magnification (×40 to ×100) by two independent investigators, who were masked for the form of treatment and previous data from every mouse.

C57B1/6J mice = experiment: Corpus luteum formation in ovaries; assay type: in vivo, mouse; settings: after 4 weeks of treatment, compared to control animals
Source text: The corpus luteum (CL) is the remnant of the graafian follicle after ovulation consisting mainly of connective tissue, granulosa and theca interna cells. The presence of Corpora lutea in an ovary is indicative of recent ovulation. We therefore examined the ovaries of mP-1 and vehicle treated mice for CL formation. After 4 weeks of treatment of C57B1/6J mice with induced endometriosis with mP-1, ovaries were removed, fixed in formalin and paraffin embedded. Ovaries from twelve, randomly chosen mice (three mice of both groups from the first two experiments) were sectioned (4-6 μm), and four consecutive sections were put on one slide. Every other slide was then stained with hematoxylin and eosin (H/E). The highest number of Corpora lutea per ovary on each slide was recorded, all numbers added and the mean number calculated.

Female SCID mice = settings: mouse, in vivo
Experimental: Female SCID mice were injected with human pancreatic tumor cells subcutaneously. When tumors reached a volume of approximately 100 mm^3 endostatin or placebo treatment was initiated and continued until the end of the study. After three days, females were mated.
Human BxPC-3 cells were grown in cells culture as described above. After washing with sterile PBS, cells were trypsinized and briefly re-suspended in RPMI 1640 medium containing 10% fetal calf serum (FCS) and 1% glutamine penicillin streptomycin (GPS) solution. After centrifuging, the cell concentration was adjusted to 50×10^6 cells/ml in additive-free RPMI 1640 medium and kept on ice. Female SCID mice were shaved on the dorsal side and the naked skin was cleaned with ethanol prior to injection. A suspension of 5×10^6 cells/ml in 100 μl was then injected subcutaneously into the dorsa of these mice at about one centimetre left of the midline.
Mice were weighed and tumors were measured every 7 days in two diameters using a dial-caliper. Tumor volumes were calculated using the formula a^2×b×0.52, while a being the shorter and b being the longer diameter. When tumors had reached a volume of approximately 100 mm^2 mice were divided into four groups.
During the first experiment, one group received endostatin (20 mg/kg; n=8) or vehicle (n=8) via subcutaneous osmotic pumps (Durect Corp., Cupertino, Calif.). Pumps were inserted via a small incision and placed into a subcutaneous pocket on the right lateral aspect of the animals' dorsa. The pumps were changed every week for a total of four weeks.
The other group received daily subcutaneous injections of endostatin (100 mg/kg, n=5) or vehicle (n=5) for the same period.
During a second study we repeated the experiment with endostatin in subcutaneous pumps. The other group in this series received the murine N-terminal fragment of endostatin (mP-1) at a dose of 2.5 mg/kg twice daily or PBS (n=5 each).
Three days after initiation of treatment female mice were added to a cage containing a male SCID mouse in a 1:1 ratio. All males had been housed separately three days prior to encountering the females and female bedding had been added to the male cages to enhance the males' libido.
For the following seven days every female was checked for a vaginal mucous plug as a sign of mating. These exams were performed during the early morning hours to optimize the results. Once a mucous plug had been noticed, mating was considered ‘successful’, and the female was not further examined in order to minimize iatrogenic stress.
Over the course of pregnancy the following parameters were assessed: ‘Mating Time’ describing the time between male encounter and the occurrence of a mucous plug; ‘Pregnancy Rate’, measured by ultrasound 15 days after the mucous plug was observed. The number of viable fetus was counted during this procedure; ‘Length of Pregnancy’, as measured from the time of successful mating to delivery; ‘Number of Total and Viable Litter’, counted on the day of birth; ‘Weight of Individual Pup’, by weighing the entire litter on the day of birth and calculating the mean weight.

## HTHQDFQPVLHLVALNTPLS (listed as Mus musculus) [mP1-20]
LLC
  tumor volume: inhibit tumor volume

## HSHRDFQPVLHLVALNSPLSGGMRG (listed as Homo sapiens) [hP1]
[1]; 500 ng/ml, VEGF 5 ng/ml
  inhibition of EC migration: no inhibition
[1]; 100, 62.5, and 25 ng/ml, VEGF 5 ng/ml
  inhibition of EC migration: best inhibition
[2]
  inhibited BxPC-3 (tumor inhibition): 39%

## MRGIRGA DFQAFQQARA VGLSGTFR (MRGIRGADFQAFQQARAVGLSGTFR; listed as Mus musculus) [mP2]
LLC; higher concentration 14 mg/kg/d
  LLC tumor formation: could inhibit LLC tumor formation as well as mP1 at 2.8 mg/kg/d
LLC
  inhibited LLC (tumor inhibition): No or insignificant activity
[3]
  reduction of vessel density (%CD31/hpf): no effect

## HPTWPQKSVWHGSDPNGRRLTESY (listed as Homo sapiens) [hP6]
[1]; 200 and 100 ng/ml, VEGF 5 ng/ml
  inhibition of EC migration: only inhibited at doses of 100 and 200 ng/ml
[1]; concentrations lower than 100 ng/ml
  inhibition of EC migration: no inhibition

## GSEGPLKPGARIFSFDGKDVLRHPT (listed as Homo sapiens) [hP5]
[2]
  inhibited BxPC-3 (tumor inhibition): 29%

## ATAQDFQPVLHLVALNTPLSGGMRGIR [mP1-H1/3A]
Female C57BL/6 mice
  arrest of the estrus cycle: Neither mP-1, not the other two peptides, mP-6 and mP-1-H led to an arrest of the estrus cycle

## HPAWPQKSVWHGSDPSGRRLMESY [mP6]
Female C57BL/6 mice
  arrest of the estrus cycle: Neither mP-1, not the other two peptides, mP-6 and mP-1-H led to an arrest of the estrus cycle

## HTHQDFQPVLHLVALNTPLSGGMRGIR [mP1]
C57B1/6J mice
  mean number of Corpora lutea in ovaries: did not reduce the mean number of Corpora lutea
Female SCID mice
  effect on the offspring: did not see any negative effect on the offspring
  length of pregnancy: 20 days
  litter size per delivery: 7.4±1.3
  mean weight of pups on the day of delivery: 1.29 g
  pregnancy rate with live births: All mice receiving mP-1 became pregnant
Female C57BL/6 mice
  arrest of the estrus cycle: Neither mP-1, not the other two peptides, mP-6 and mP-1-H led to an arrest of the estrus cycle

## GSQGQVQPGARIFSFDGRDVLRHPA (listed as Mus musculus) [mP5]
LLC
  inhibited LLC (tumor inhibition): No or insignificant activity

## TFRAFLSSRLQDLYSIVRRADRAAV (listed as Homo sapiens) [hP3]
[2]
  inhibited BxPC-3 (tumor inhibition): failed to inhibit tumor growth

## HTHQDFQPVLHLVAL (listed as Mus musculus) [mP1-15]
LLC
  tumor volume: inhibit tumor volume
